Measured values published in PubChem BioAssay (NCI).
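1) Cells in 96-well plates. 2) Compound, 48 h, 5 concentrations. 3) Linear interpolation between surrounding doses. 4) Unreached endpoint = highest concentration. At the TGI there is no net growth.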

Columns and labels:
Assay in all cases: inhibition of tumour cell growth, NCI panel, 48 h
786-0 renal = tested on: 786-0 renal
A498 renal = tested on: A498 renal
A549 NSCLC = tested on: A549 NSCLC
ACHN renal = tested on: ACHN renal
BT-549 breast = tested on: BT-549 breast
CAKI-1 renal = tested on: CAKI-1 renal
CCRF-CEM leukemia = tested on: CCRF-CEM leukemia
COLO 205 colon = tested on: COLO 205 colon
DU-145 prostate = tested on: DU-145 prostate
HCC-2998 colon = tested on: HCC-2998 colon
HCT-116 colon = tested on: HCT-116 colon
HCT-15 colon = tested on: HCT-15 colon
HL-60(TB) leukemia = tested on: HL-60(TB) leukemia
HOP-62 NSCLC = tested on: HOP-62 NSCLC
HS 578T breast = tested on: HS 578T breast
HT29 colon = tested on: HT29 colon
IGROV1 ovarian = tested on: IGROV1 ovarian
K-562 leukemia = tested on: K-562 leukemia
KM12 colon = tested on: KM12 colon
LOX IMVI melanoma = tested on: LOX IMVI melanoma
M14 melanoma = tested on: M14 melanoma
MALME-3M melanoma = tested on: MALME-3M melanoma
MCF7 breast = tested on: MCF7 breast
MDA-MB-231 breast = tested on: MDA-MB-231 breast
MDA-MB-435 = tested on: MDA-MB-435
MDA-N = tested on: MDA-N
MOLT-4 leukemia = tested on: MOLT-4 leukemia
NCI-H226 lung = tested on: NCI-H226 lung
NCI-H23 lung = tested on: NCI-H23 lung
NCI-H460 lung = tested on: NCI-H460 lung
NCI-H522 lung = tested on: NCI-H522 lung
NCI/ADR-RES ovarian = tested on: NCI/ADR-RES ovarian
OVCAR-3 ovarian = tested on: OVCAR-3 ovarian
OVCAR-5 ovarian = tested on: OVCAR-5 ovarian
OVCAR-8 ovarian = tested on: OVCAR-8 ovarian
PC-3 prostate = tested on: PC-3 prostate
RPMI-8226 leukemia = tested on: RPMI-8226 leukemia
RXF 393 renal = tested on: RXF 393 renal
SF-268 CNS = tested on: SF-268 CNS
SF-295 CNS = tested on: SF-295 CNS
SF-539 CNS = tested on: SF-539 CNS
SK-MEL-2 melanoma = tested on: SK-MEL-2 melanoma
SK-MEL-28 melanoma = tested on: SK-MEL-28 melanoma
SK-MEL-5 melanoma = tested on: SK-MEL-5 melanoma
SK-OV-3 ovarian = tested on: SK-OV-3 ovarian
SN12C renal = tested on: SN12C renal
SNB-19 CNS = tested on: SNB-19 CNS
SNB-75 CNS = tested on: SNB-75 CNS
SR leukemia = tested on: SR leukemia
SW-620 colon = tested on: SW-620 colon
T-47D breast = tested on: T-47D breast
TK-10 renal = tested on: TK-10 renal
U251 CNS = tested on: U251 CNS
UACC-257 melanoma = tested on: UACC-257 melanoma
UACC-62 melanoma = tested on: UACC-62 melanoma
UO-31 renal = tested on: UO-31 renal
EKVX NSCLC = tested on: EKVX NSCLC
HOP-92 NSCLC = tested on: HOP-92 NSCLC
OVCAR-4 ovarian = tested on: OVCAR-4 ovarian

Measured: TGI

O=C(O)C12C3CCC(CC3)C1(C(=O)O)C1CCC2C1 (configuration not stated)
not listed: EKVX NSCLC | HOP-92 NSCLC | OVCAR-4 ovarian
> 100 µM: all other assays above

OCC12C3C4C5C3C1C5C42 (configuration not stated)
not listed: HCC-2998 colon | KM12 colon | RPMI-8226 leukemia
> 100 µM: all other assays above
